Experimental findings from patent US20090075983A1 (priority 2006, published 2009) are described below.

pIC50: −log10 of the molar value.

The pIC50 is the negative decadic logarithm of the IC50, by convention in mol/L. Usually melting point stands for the temperature of the solid-liquid transition.

Series [1] has as its target T1, α7-subtype of nicotinic receptors (Rattus norvegicus, UniProt Q05941).
T1 construct: Cerebral cortices from male Wistar rats (150-250 g) are homogenised; from tissue; host or cells: rat cerebral cortex membrane homogenate
Briefly: biochemical. The settings on record: read-out: Inhibition of 3H-α-Bungarotoxine Binding IC50.

T1 sequence (Q05941 23-502): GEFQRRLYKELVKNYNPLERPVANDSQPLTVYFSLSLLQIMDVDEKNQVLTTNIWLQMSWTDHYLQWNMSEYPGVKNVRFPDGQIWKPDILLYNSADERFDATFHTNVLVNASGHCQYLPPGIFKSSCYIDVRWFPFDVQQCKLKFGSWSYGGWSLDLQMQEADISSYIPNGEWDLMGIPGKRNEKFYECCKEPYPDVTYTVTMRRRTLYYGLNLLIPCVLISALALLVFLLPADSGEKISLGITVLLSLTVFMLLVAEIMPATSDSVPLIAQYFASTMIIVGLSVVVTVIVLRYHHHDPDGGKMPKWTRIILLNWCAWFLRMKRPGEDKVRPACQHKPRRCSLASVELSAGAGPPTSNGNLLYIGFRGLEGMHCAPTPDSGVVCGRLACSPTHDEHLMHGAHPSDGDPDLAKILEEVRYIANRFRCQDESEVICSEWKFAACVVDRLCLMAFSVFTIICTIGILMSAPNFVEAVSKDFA

`Cl.O=C(Nc1ccc(OC(=O)N2CCN3CCC2CC3)cc1)c1ccccc1` [Compound C1, 1,4-Diaza-bicyclo[3.2.2]nonane-4-carboxylic acid 4-benzoylamino-phenyl ester hydrochloric acid salt]: the melting point was > 270 °C. Also, the negative logarithm of the IC50 (pIC50) in series [1] was 6.25.

In turn, `O=C(O)/C=C/C(=O)O.O=C(Oc1ccc(C#Cc2ccccc2)cc1)N1CCN2CCC1CC2` [Compound A1, 1,4-Diaza-bicyclo[3.2.2]nonane-4-carboxylic acid 4-phenylethynyl-phenyl ester fumaric acid salt] came in with a melting point of 160 to 177 °C. Besides, the negative logarithm of the IC50 (pIC50) in series [1] is 6.38.
